Measured values: patent publication US20210395327A1, “Growth Hormone-Releasing Hormone Antagonists and Uses Thereof” (United States Government As Represented By The Department …, priority 2019, published 2021)
Non-standard residues stand in square brackets, D forms with d. Residues, ends and D or L forms follow the SMILES beside them. *: point of attachment. Phenylacetyl(2,3,4,5,6-F5) = O=C(Cc1c(F)c(F)c(F)c(F)c1F)*; Phe(F5) = N[C@@H](Cc1c(F)c(F)c(F)c(F)c1F)C(=O)O; Phe(4-Cl) = N[C@@H](Cc1ccc(Cl)cc1)C(=O)O; hArg = N=C(N)NCCCC[C@H](N)C(=O)O; 12Ado = NCCCCCCCCCCCC(=O)O; Nle = CCCC[C@H](N)C(=O)O; Orn = NCCC[C@H](N)C(=O)O; Abu = CC[C@H](N)C(=O)O; PhAc = O=C(Cc1ccccc1)*

How the values were obtained:
[1] = system: stomach cancer N87 xenograft; assay: Xenograft tumor growth in nude mice, N87; type: in vivo; settings: for % Inhibition: vs control
Method: The peptides' activity was compared with GHRH antagonist MIA-602. All statistical analyzses were performed from comparing GHRA antagonists to non-treated tumor (control).
Peptides and chemicals. GHRH antagonists MIA-602 and AVR-GHRH antagonists (see Table 2 above) were synthesized by solid phase methods and purified by HPLC. The peptides were dissolved in DMSO and further diluted in 10% 1,2-propanediol. The final concentration of peptides was 50 µg/ml in 10% 1,2-propanediol containing 0.1% of DMSO.
Cell culture. Human cancer cell lines including pancreatic (PANC-1 and CFPAC-1), lung (HCC827 and H460), stomach (NCI-N87), prostate (PC3), brest (MX-1 and HCC-1806), colorectal (HT-29), and ovarian (SK-OV-3 and OVCAR-3) were obtained from the American Type Culture Collection (ATCC) and cultured at 37° C. in a humidified 95% air/5% CO2 atmosphere in the medium recommended by ATCC.
Xenograft models of human cancers in nude mice. Female athymic (NCr nu/nu) nude mice, 5- to 6-weeks-old, obtained from the Envigo labs (Tampa, Fla.), were housed in laminar airflow cabinets under pathogen-free conditions with a 12-h light/12-h dark schedule, and were fed autoclaved standard chow and water. To generate mice with xenografted tumors, tumor xenografts were initiated by subcutaneous (s.c.) injection of 107 human cancer cells into female nude mice. After about 4 weeks the resulting tumors were dissected and collected after removing necrosis tissues. The tumors were then cut into particles with size of 3 mm3 and transplanted s.c. by trocar needle into experimental animals. When tumors grew to the size of 50-60 mm3 (by volume), […] of 5 μg of GHRH antagonists MIA-602 or AVR-compounds (2-10 μg as indicated), or vehicle solutions (0.1% DMSO in 10% 1,2-propanediol) respectively. Tumor sizes were measured weekly.
Statistical analysis. One-way ANOVA followed by Bonferroni comparison were performed. Data are expressed as Mean±SEM. To determine statistical significance between animal groups, two-tailed Student's t-test was conducted. Differences were considered significant when p<0.05.
Results. […] FIG. 1A-N represents in vivo inhibition of tumor growth during the treatment with GHRH antagonist MIA-602 and selected AVR antagonists in nude mice xenografted with various human tumors including pancreatic cancer PANC-1 (FIG. 1A) and CFPAC-1 (FIG. 1I); lung cancer HCC827 (FIGS. 1B, C) and H460 (FIG. 1H); stomach cancer N87 (FIGS. 1D-F); colon cancer HT-29 (FIG. 1G); breast cancer MX-1 and HCC-1806 (FIGS. 1J, K); ovarian cancer SK-OV-3 and OVACAR-3 (FIGS. 1 L, M) and prostate cancer PC3 (FIG. 1N). See also Table 5.

[2] = system: HCC827 lung cancer cells; assay: In vitro cell viability, HCC827; type: cell-based, human; settings: for In vitro relative inhibitory potency in comparison to MIA-602, HCC827: Table 3B, 5 μM for 72 H, MIA-602 = 1
Procedure, shortened: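 Viability by CellTiter 96 aqueous one solution (MTS) after 72 h exposure to antagonist at 5 μM (some at 2 μM), following 24 h starvation in 0.5% FBS. Results given as percentage inhibition relative to MIA602.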

[3] = system: GH release from rat pituitary cells; assay: Inhibition of GH release from rat pituitary cells in vitro (GH ELISA); type: cell-based; settings: analogs 20 nM, then with 1 nM GHRH(1-29)NH2 for 30 minutes; Control = 1.00
Method: In vitro assessment of the antagonistic activity of GHRH analogs. Rats were decapitated and pituitaries were collected in pre-warmed HBSS (Hanks' Balanced Salt Solution). Tissue was then cut into small pieces and digested in HBSS medium containing 3% BSA, 50 μg/ml gentamycin and 0.5% collagenase for 50 minutes at 37° C. Cells were further dispersed by pipetting and passed through a 100 μm cell strainer with the addition of DMEM containing 50 μg/ml gentamycin. 10% horse serum and 2.5% FBS (growth medium). Cells were harvested at 475×g for 2 minutes, resuspended in fresh growth medium and seeded onto poly-D-lysine-coated 24-well plates (7 pituitaries/plate). Cells were left to recover for 4 days. Growth medium was then replaced with serum-free DMEM for 4 hours and GHRH analogs (at concentration of 20 nM) were added in DMEM containing 0.1% BSA for 30 minutes. Cells were replenished with medium containing the same concentration of the analogs and 1 nM GHRH(1-29)NH2 for 30 minutes. Medium from this step was collected, centrifuged at 800 g for 3 minutes and GH concentration was determined by ELISA (ALPCO Diagnostics, Mill Valley, Calif.) according to the manufacturer's instruction.

[4] = Table 4E, Stomach Ca N87, 4 weeks, 2 μg/day s.c.
[5] = Table 4E, Stomach Ca N87, 4 weeks, 5 μg/day s.c.
[6] = Table 4D, Stomach Ca N87, 10 weeks, 2 μg/day s.c.
[7] = Table 4D, Stomach Ca N87, 10 weeks, 5 μg/day s.c.
[8] = Table 4F, Stomach Ca N87, 4 weeks, 5 μg/day s.c.

SMILES | Tumor Growth % [1, 4] [%] | % Inhibition [1, 4] [%] | Tumor Growth % [1, 5] [%] | % Inhibition [1, 5] [%] | In vitro relative inhibitory potency in comparison to MIA-602, HCC827 [2] | Relative GH release [3] | Tumor Size (mm^3) [1, 6] [mm^3] | % Inhibition [1, 6] [%] | Tumor Size (mm^3) [1, 7] [mm^3] | % Inhibition [1, 7] [%] | Tumor Growth % [1, 8] [%] | % Inhibition [1, 8] [%] | relative inhibitory potency in comparison to MIA-602, Lung IICC827 ([2]; antagonist 5 μM for 72 h, cell proliferation assay, MIA602 = 1)
CCCC[C@H](NC(=O)[C@@H](NC(=O)[C@H](CC(=O)O)NC(=O)[C@H](CCC(N)=O)NC(=O)[C@H](CC(C)C)NC(=O)[C@H](CC(C)C)NC(=O)[C@H](CCCN)NC(=O)[C@H](Cc1c[nH]cn1)NC(=O)[C@H](C)NC(=O)[C@H](CO)NC(=O)[C@H](CC(C)C)NC(=O)[C@H](CCC(N)=O)NC(=O)[C@H](CC)NC(=O)[C@H](CC(C)C)NC(=O)[C@@H](NC(=O)[C@H](CCCN)NC(=O)[C@H](Cc1c[nH]cn1)NC(=O)[C@H](Cc1c(F)c(F)c(F)c(F)c1F)NC(=O)[C@H](CCCCNC(=N)N)NC(=O)[C@H](C)NC(=O)[C@@H](NC(=O)[C@H](Cc1ccc(Cl)cc1)NC(=O)[C@@H](NC(=O)[C@H](C)NC(=O)[C@H](CC(=O)O)NC(=O)[C@@H](CCCNC(=N)N)NC(=O)[C@H](Cc1ccc(O)cc1)NC(=O)CCCCCCCCCCCNC(=O)Cc1c(F)c(F)c(F)c(F)c1F)[C@@H](C)CC)[C@@H](C)O)C(C)C)[C@@H](C)CC)C(=O)N[C@H](CCCNC(=N)N)C(=O)N[C@@H](CCCCNC(=N)N)C(=O)NCCCCCCCCCCCC(=O)NC [AVR-543, 5FPhAC-Ada-Tyr-DArg-Asp-Ala-Ile-Cpa-Thr-Ala-Har-5FPhe-His-Orn-Val-Leu-Abu-Gln-Leu-Ser-Ala-His-Orn-Leu-Leu-Gln-Asp-Ile-Nle-DArg-Har-Ada-NHCH3] ({Phenylacetyl(2,3,4,5,6-F5)-12Ado}-Y[dR]DAI[Phe(4-Cl)]TA[hArg][Phe(F5)]H[Orn]VL[Abu]QLSAH[Orn]LLQDI[Nle][dR][hArg][12Ado]-NHMe) | 406.8 | 48.4 | 313.90 | 64.8 | 0.961 | 1.10 ± 0.01 |  |  |  |  |  |  | 
CCCC[C@H](NC(=O)[C@@H](NC(=O)[C@H](CC(=O)O)NC(=O)[C@H](CCC(N)=O)NC(=O)[C@H](CC(C)C)NC(=O)[C@H](CC(C)C)NC(=O)[C@H](CCCN)NC(=O)[C@H](Cc1c[nH]cn1)NC(=O)[C@H](C)NC(=O)[C@H](CO)NC(=O)[C@H](CC(C)C)NC(=O)[C@H](CCC(N)=O)NC(=O)[C@H](CC)NC(=O)[C@H](CC(C)C)NC(=O)[C@@H](NC(=O)[C@H](CCCN)NC(=O)[C@H](Cc1c[nH]cn1)NC(=O)[C@H](Cc1ccc(OC)cc1)NC(=O)[C@H](CCCCNC(=N)N)NC(=O)[C@H](C)NC(=O)[C@@H](NC(=O)[C@H](Cc1c(F)c(F)c(F)c(F)c1F)NC(=O)[C@@H](NC(=O)[C@H](C)NC(=O)[C@H](CC(=O)O)NC(=O)[C@@H](CCCNC(=N)N)NC(=O)[C@H](Cc1ccc(O)cc1)NC(=O)CCCCCCCCCCCNC(=O)Cc1ccccc1)[C@@H](C)CC)[C@@H](C)O)C(C)C)[C@@H](C)CC)C(=O)N[C@H](CCCNC(=N)N)C(=O)N[C@@H](CCCCNC(=N)N)C(N)=O [MIA-602, PhAC-Ada, Tyr D-Arg, Asp, Ala, Ile, 5FPhe, Thr, Ala, Har, Tyr(Me), His, Orn, Val, Leu, Abu, Gin, Leu, Ser, Ala, His, Om, Leu, Leu, Gin, Asp, Ile; Nle, D-Arg, Har NH2, reference compound] ({PhAc-12Ado}-Y[dR]DAI[Phe(F5)]TA[hArg]Y(Me)H[Orn]VL[Abu]QLSAH[Orn]LLQDI[Nle][dR][hArg]-NH2) |  |  | 427.20 | 52.1 | 1 | 0.78 ± 0.01 | 1065.00 | 13.0 | 767.00 | 37.3 | 427.20 | 52.1 | 1
